PubChem BioAssay (NCI)
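Growth conditions: 96-well plates. Treatment: test compound, 48 hours, 5 concentrations. Analysis: linear interpolation between bracketing concentrations; unreached endpoints set to highest concentration. GI50 = concentration required for 50% inhibition of growth. TGI is the concentration that stops growth completely.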

Key:
Assay in all cases: NCI anticancer screen, dose series, 48 h
[1] = tested on: MDA-N
[2] = tested on: HOP-92 NSCLC
[3] = tested on: SNB-75 CNS
[4] = tested on: MDA-MB-435
[5] = tested on: BT-549 breast
[6] = tested on: HCT-15 colon
[7] = tested on: ACHN renal
[8] = tested on: NCI-H460 lung
[9] = tested on: MALME-3M melanoma
[10] = tested on: CCRF-CEM leukemia

SMILES | TGI [1] [µM] | TGI [2] [µM] | TGI [3] [µM] | TGI [4] [µM] | TGI [5] [µM] | TGI [6] [µM] | TGI [7] [µM] | TGI [8] [µM] | TGI [9] [µM] | TGI [10] [µM] | GI50 [2] [µM] | GI50 [3] [µM] | GI50 [4] [µM] | GI50 [5] [µM] | GI50 [6] [µM] | GI50 [7] [µM] | GI50 [10] [µM] | GI50 [8] [µM] | GI50 [9] [µM]
CC(C)(C)[Si](C)(C)OC[C@H](/C=C\CCCC(=O)O)NC1(c2ccccc2)c2ccccc2-c2ccccc21 | > 100 | 25.5 | > 100 | 39.3 | 91.6 | 50.9 | 49.5 | 59.8 |  |  |  |  |  |  |  |  |  |  | 
O=[N+]([O-])/C(C(Cl)=C(Cl)Cl)=C(/Nc1ccccc1)Sc1ccccc1 | 56.3 | 68.3 |  | 33.9 | 66.9 | 41.6 | 33.1 | 41.6 | 31.8 | 36.6 |  |  |  |  |  |  |  |  | 
Cc1cc2ccc(N)nc2[nH]c1=O | > 100 | > 100 | > 100 | > 100 | > 100 | > 100 | > 100 | > 100 | > 100 |  |  |  |  |  |  |  |  |  | 
CCCCC[C@H]1CCCCCCCCCC(=O)OC2C(O[C@@H]3OC(C)[C@H](OC(=O)[C@@H](C)CC)C(O[C@@H]4OC(C)[C@H](O)C(O)[C@@H]4O)[C@@H]3OC(=O)[C@H](C)CC)[C@H](OC3C(O)[C@@H](O)C(C)O[C@H]3O1)OC(CO)[C@H]2O (stereo not given in full) | 31.4 | 37.1 |  |  |  | 30.6 |  | 32.5 | 28.8 | 32.5 |  |  |  |  |  |  |  |  | 
C(#Cc1ccccc1)SC1=C(c2ccccc2)S/C(=C(\SC#Cc2ccccc2)c2ccccc2)S1 | > 100 | > 100 | > 100 | > 100 | > 100 | > 100 | > 100 | > 100 |  | > 100 |  |  |  |  |  |  |  |  | 
O=c1[nH]c2ccc([N+](=O)[O-])cc2nc1/C=C(\O)c1ccccc1 | > 100 |  | 58.3 | > 100 | > 100 | > 100 | > 100 | 16.5 | > 100 | > 100 |  |  |  |  |  |  |  |  | 
NC(=O)Oc1ccccc1 | > 100 | > 100 | > 100 | > 100 |  | > 100 | > 100 | > 100 |  | > 100 |  |  |  |  |  |  |  |  | 
Cc1ccccc1NC(=O)Cc1csc(N=Nc2c(O)[nH]c3ccccc23)n1 | > 100 | > 100 | > 100 | > 1 |  | > 100 | > 100 | > 100 | > 100 | > 100 |  |  |  |  |  |  |  |  | 
S=c1nc[nH]c2c1ncn2C1CCCO1 (stereo not given) |  | > 100 | > 100 |  |  | > 100 | > 100 | > 100 | > 100 | > 100 |  |  |  |  |  |  |  |  | 
CCOC(=O)C(C/C=C/CO)N(C)C(=O)OC(C)(C)C (stereo not given) | > 100 | > 100 | > 100 |  | > 100 | > 100 | > 100 | > 100 |  | > 100 |  |  |  |  |  |  |  |  | 
Cc1c(O)c(=O)ccn1CCc1ccc(O)cc1 | > 100 | 57 |  | > 100 | > 100 | > 100 | > 100 | 52.9 | 65.8 | 42 |  |  |  |  |  |  |  |  | 
COc1ccc(C2=NC(c3ccc(Cl)cc3)C(c3ccc(Cl)cc3)N2C(=O)N2CCNC(=O)C2)c(OC(C)C)c1 (stereo not given) |  | 4.06 | 4.8 | 3.63 | 4.03 | 3.86 | 3.33 | 3.82 |  | > 10 | 2.1 | 2.37 | 1.92 | 2.03 | 1.91 | 1.89 | 3.85 | 1.95 | 
Cc1ccc(/C=C2/N=C(N/N=C\c3ccccc3)NC2=O)cc1 | 88.2 |  | > 100 | 69.7 | > 100 | > 100 | 38.4 | > 100 | > 100 |  |  |  |  |  |  |  |  |  | 
N#Cc1nc(-c2cccc(-c3nc(C#N)c(N)o3)n2)oc1N | > 100 | > 100 | > 100 | > 100 |  | > 100 | > 100 | > 100 | > 100 | 46.9 |  |  |  |  |  |  |  |  | 
CC(NC(=O)C(Cc1ccc(OC(=O)c2ccccc2)cc1)NC(=O)OC(C)(C)C)C(=O)NCC(=O)NC(Cc1ccccc1)C(=O)NN (stereo not given) | > 100 | > 100 | > 100 | > 100 | > 100 | > 100 | > 100 | > 100 | > 100 |  |  |  |  |  |  |  |  |  | 
CCOC(=O)C(C(=O)COC(C)(C)C)[C@@H]1C=C[C@H](OC(C)=O)C1 (stereo not given in full) | > 100 |  | > 100 | > 100 | > 100 | > 100 | > 100 | > 100 | > 100 | > 100 |  |  |  |  |  |  |  |  | 
C=C(C)[C@@H]1CC[C@]2(C(=O)NC(C)=O)CC[C@]3(C)[C@H](CC[C@@H]4[C@@]5(C)CCCNC(C)(C)[C@@H]5CC[C@]43C)[C@@H]12 |  | 2.89 | 2.83 | 3.11 | 3.28 | 2.97 | 3.15 | 3.13 | 2.65 | 4.55 | 1.33 | 1.4 | 1.55 | 1.68 | 1.52 | 1.77 | 1.65 | 1.64 | 1.34
NS(=O)(=O)c1ccc(N=Nc2ccc(O)c(C(=O)O)c2)cc1 | > 100 | > 100 | > 100 | > 100 | > 100 | > 100 | > 100 | > 100 | > 100 |  |  |  |  |  |  |  |  |  | 
CCOc1cc2c(cc1O)C(N)C[C@@H]1[C@@H]2CC[C@]2(C)[C@@H](O)CC[C@@H]12 (stereo not given in full) | > 100 | > 100 | 95.4 | 52.4 | > 100 | > 100 | > 100 | > 100 |  | 71.6 |  |  | 16.2 |  |  |  |  |  | 
CC1(C)CC(=O)C2=C(C1)OC1(CC2c2ccc(Cl)cc2)CC(c2ccc(Cl)cc2)C2=C(CC(C)(C)CC2=O)O1 (stereo not given) |  | 25.7 | 37.1 | 33.7 | 50.6 | > 100 | 38.9 | > 65.1 | 30.1 | > 76.7 |  |  |  |  |  |  |  |  | 
CCn1c2ccccc2c2cc(Nc3cc(C)[nH]c(=O)n3)ccc21 | > 100 | > 100 |  | > 100 |  | > 100 | > 100 | > 100 | > 100 |  |  |  |  |  |  |  |  |  | 
